Data published in patent US6342508B1, “N-hydroxy-2-(Alkyl,Aryl or Heteroaryl sulfanyl, sulfinyl or sulfonyl) 3-substituted alkyl, aryl or heteroarylamides as matrix metalloproteinase inhibitors” (American Cyanamid Company, priority 1997, dated 2002).
Like-named read-outs stand apart in the source and are kept apart here.

Assays:
MMP 1 = molecular target: T1, MMP 1 (Homo sapiens, UniProt P03956); assay: In Vitro Collagenase Assay (human recombinant fibroblast collagenase, fluorogenic peptide substrate); type: biochemical; details: for IC50: read-out: MMP 1 IC 50
T1 construct: human recombinant fibroblast collagenase (truncated mw=18,828, WAR, Radnor)
T1 sequence (P03956 100-269 limits assumed): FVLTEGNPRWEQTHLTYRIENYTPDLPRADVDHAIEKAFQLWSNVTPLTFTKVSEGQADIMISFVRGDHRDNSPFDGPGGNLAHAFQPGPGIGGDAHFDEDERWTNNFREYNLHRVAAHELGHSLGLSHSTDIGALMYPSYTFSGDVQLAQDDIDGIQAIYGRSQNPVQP
Procedure: The assay is based on the cleavage of a peptide substrate ((Dnp-Pro-Cha-Gly-Cys(Me)-His-Ala-Lys(NMa)-NH2), Peptide International Inc.) by collagenase releasing the fluorescent NMa group which is quantitated on the fluorometer. Dnp quenches the NMa fluorescence in the intact substrate. […] Substrate is dissolved in methanol and stored frozen in 1 mM aliquots. […] For the assay, substrate is dissolved in HCBC buffer to a final concentration of 10 μM and collagenase to a final concentration of 5 nM. Compounds are dissolved in methanol, DMSO, or HCBC. The methanol and DMSO are diluted in HCBC to <1.0%. Compounds are added to the 96 well plate containing enzyme and the reaction is started by the addition of substrate.
The slope of the line is calculated and represents the reaction rate.
The mean (x±sem) of the control rate is calculated and compared for statistical significance (p<0.05) with drug-related rates using Dunnett's multiple comparison test.

TACE = molecular target: T2, TACE (Homo sapiens, UniProt P78536); assay: Procedure for Measuring TACE Inhibition (fluorescent peptidyl substrate); type: biochemical; details: for inhibition at 1 µM: read-out: TACE % inhibition at 1 micromolar
T2 construct: purchased Immunex
T2 sequence (P78536 215-824): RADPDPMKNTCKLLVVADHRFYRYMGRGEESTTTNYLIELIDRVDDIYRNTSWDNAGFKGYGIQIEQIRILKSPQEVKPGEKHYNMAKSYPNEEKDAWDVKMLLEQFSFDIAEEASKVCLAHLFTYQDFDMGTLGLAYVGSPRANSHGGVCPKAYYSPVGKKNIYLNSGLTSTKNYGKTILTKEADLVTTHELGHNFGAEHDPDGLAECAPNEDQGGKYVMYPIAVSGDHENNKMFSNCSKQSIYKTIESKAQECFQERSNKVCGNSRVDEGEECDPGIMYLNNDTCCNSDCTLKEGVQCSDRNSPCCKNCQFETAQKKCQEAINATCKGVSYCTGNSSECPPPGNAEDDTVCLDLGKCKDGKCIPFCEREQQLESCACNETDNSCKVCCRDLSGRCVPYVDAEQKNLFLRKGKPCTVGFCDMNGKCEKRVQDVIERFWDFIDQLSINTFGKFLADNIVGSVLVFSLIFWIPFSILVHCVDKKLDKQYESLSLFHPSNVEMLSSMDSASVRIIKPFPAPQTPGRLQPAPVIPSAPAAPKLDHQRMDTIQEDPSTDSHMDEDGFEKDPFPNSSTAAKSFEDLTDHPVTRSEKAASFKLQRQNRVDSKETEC
Procedure: Using 96-well black microtiter plates, each well recieves a solution composed of 10 μL TACE (Immunex, final concentration 1 μg/mL), 70 μL Tris buffer, pH 7.4 containing 10% glycerol (final concentration 10 mM), and 10 μL of test compound solution in DMSO (final concentration, DMSO concentration <1%) and incubated for 10 minutes at room temperature. The reaction is initiated by addition of a fluorescent peptidyl substrate (final concentration 100 μM) to each well and then shaking on a shaker for 5 sec. The reaction is read (excitation 340 nm, emission 420 nm) for 10 min. and the increase in fluorescence over time is plotted as a linear line. The slope of the line is calculated and represents the reaction rate. […] The mean (x±sem) of the control rate is calculated and compared for statistical significance (p<0.05) with drug-treated rates using Dunnett's multiple comparison test.

MMP 13 [1] = molecular target: T3, MMP 13 (Homo sapiens, UniProt P45452); assay: MMP 13 inhibition (standard/manual test); type: biochemical
MMP 9 = molecular target: T4, MMP 9 (Homo sapiens, UniProt P14780); assay: In Vitro Gelatinase Assay (human neutrophil gelatinase B, thiopeptide substrate/DTNB); type: biochemical
T4 construct: from tissue; host or cells: human neutrophils
T4 sequence (P14780 94-707): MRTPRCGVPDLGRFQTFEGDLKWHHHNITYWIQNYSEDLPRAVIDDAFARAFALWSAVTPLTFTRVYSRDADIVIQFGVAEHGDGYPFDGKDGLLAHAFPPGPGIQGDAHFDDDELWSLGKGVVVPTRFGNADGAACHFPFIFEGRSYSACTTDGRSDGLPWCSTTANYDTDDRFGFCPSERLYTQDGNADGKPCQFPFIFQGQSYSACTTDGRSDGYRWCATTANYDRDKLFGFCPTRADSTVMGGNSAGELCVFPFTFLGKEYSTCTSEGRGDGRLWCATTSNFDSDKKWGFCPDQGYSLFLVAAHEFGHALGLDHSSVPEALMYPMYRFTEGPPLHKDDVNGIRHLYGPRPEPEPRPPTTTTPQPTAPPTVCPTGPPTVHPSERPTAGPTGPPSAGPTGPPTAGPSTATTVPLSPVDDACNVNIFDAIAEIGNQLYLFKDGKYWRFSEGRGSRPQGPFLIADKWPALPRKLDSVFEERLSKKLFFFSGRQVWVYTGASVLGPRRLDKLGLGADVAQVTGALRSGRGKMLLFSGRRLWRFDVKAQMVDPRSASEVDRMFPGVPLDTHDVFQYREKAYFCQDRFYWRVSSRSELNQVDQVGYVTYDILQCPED
Procedure: The assay is based on the cleavage of the thiopeptide substrate ((Ac-Pro-Leu-Gly(2 Mercapto-4 methyl-pentanoyl)-Leu-Gly-OEt), Bachem Bioscience) by the enzyme, gelatinase, releasing the substrate product which reacts colorimetrically with DTNB ((5,5′-dithio-bis(2-nitro-benzoic acid)). The enzyne activity is measured by the rate of the color increase. The thiopeptide substrate is made up fresh as a 20 mM stock in 100% DMSO and the DTNB is dissolved in 100% DMSO as a 100 mM stock and stored in dark at room temperature. Both the substrate and DTNB are diluted together to 1 mM with substrate buffer (50 mM HEPES pH 7.5, 5 mM CaCl2) before use.
The increase in OD405 is plotted and the slope of the line is calculated which represents the reaction rate.
The mean (x±sem) of the control rate is calculated and compared for statistical significance (p<0.05) with drug-treated rates using Dunnett's multiple comparison test.

MMP 13 [2] = molecular target: T3, MMP 13; assay: MMP 13 inhibition (HTS); type: biochemical

| Molecule | MMP 1 % inhibition at 1 micromolar (MMP 1) | MMP 9 % inhibition at 1 micromolar (MMP 9) | TACE % inhibition at 1 micromolar (TACE) | IC50 (MMP 1) | IC50 (MMP 13 [1]; read-out: MMP 13 IC 50) | IC50 (MMP 9; read-out: MMP 9 IC 50) | other results |
| --- | --- | --- | --- | --- | --- | --- | --- |
| CCCCCCC(Sc1ccc(OC)cc1)C(=O)NO (stereo not drawn) [Example 37, 2-(4-Methoxy-benzenesulfanyl)-octanoic acid hydroxyamide] | 9% | 31.6% |  |  |  |  | IC50 (TACE; read-out: TACE IC 50): 0.087 µM; MMP 13 % inhibition at 1 micromolar (MMP 13 [1]): 14.3% |
| CC(=O)Nc1ccc(SC(Cc2ccccc2)C(=O)NO)cc1 (stereo not drawn) [Example 128, 2-(4-Acetylamino-benzenesulfanyl)-N-hydroxy-3-phenyl-propionamide] |  |  |  |  |  |  | IC50 (MMP 13 [1]; manual, nM): 255 nM; inhibition at 0.2 µM (MMP 13 [2]; read-out: MMP 13 % inhibition at 0.2 μM (HTS), 0.2 μM): 91%; IC50 (MMP 9; solid phase compounds table, read-out: MMP 9): 0.213 µM |
| CCCCCCCCS(=O)(=O)C(Cc1ccc(OCCN2CCCCC2)cc1)C(=O)NO (stereo not drawn) [Example 46, 2-(octane-1-sulfonyl)-3-[4-(2-piperidin-yl-ethoxy)-phenyl]propionic acid hydroxamide] | 78.9% | 79.12% | 1.4% |  |  |  | MMP 13 % inhibition at 1 micromolar (MMP 13 [1]): 84.7% |
| CC(Cc1ccc(OCCN2CCCCC2)cc1)(C(=O)NO)S(=O)(=O)c1cccs1 (stereo not drawn) [Example 45, 2-Methyl-3-4-(2-piperdin-1-yl-ethoxy)-phenyl-2-(thiophene-2-sulfonyl)-propionic acid hydroxamide] | 49% | 48.6% | 20.4% |  |  |  |  |
| COc1ccc(S(=O)(=O)C2(C(=O)NO)CCN(CC=C(C)C)CC2)cc1 [Example 89, 4-(4methoxy-benzene-sulfonyl)-1-(3-methyl-but-2-enyl)-piperdine-4-carboxylic acid hydroxamide] |  |  | 49% | 1.39 µM | 7 nM | 0.0386 µM |  |
| 2-(4-Methoxy-benzenesulfonyl)-4methyl-2-pyridin-ylmethyl-pentanoic acid hydroxyamide [Example 66] |  |  | 42.33% | 1.6 µM | 226 nM | 0.131 µM |  |
| COc1ccc(CS(=O)(=O)C(C)(Cc2ccccc2)C(=O)NO)cc1 (stereo not drawn) [Example 41, N-Hydroxy-2-(4-methoxy-phenylmethanesulfonyl)-2-methyl-3-phenyl propionic acid hydroxamide] |  |  |  | 0.1 µM |  |  | inhibition at 1 µM (TACE): 15.5%; melting point: 58 to 59 °C |
| CC(C(=O)O)S(=O)(=O)CCCCCCCCS(=O)(=O)C(C)C(=O)NO (stereo not drawn) [Example 49, 2-[8-(1-carboxy-ethanesfonyl)-octane-1-sulfonyl]-propionic acid hydroxyamide] | 10.1% | 23.7% |  |  |  |  | MMP 13 % inhibition at 1 micromolar (MMP 13 [1]): 54.6% |
| CCOc1ccc(S(=O)(=O)C(C)(Cc2ccc(OCCN(CC)CC)cc2)C(=O)NO)cc1 (stereo not drawn) [Example 25, N-Hydroxy-2-(4-ethoxy-benzenesulfonyl)-2-methyl-3-[4-(2-N,N-diethylamino-ethoxy)-phenyl]-propionamide] |  |  |  |  | 8 nM | 0.0267 µM |  |
| Cc1occc1S(=O)(=O)C(C)(Cc1ccccc1)C(=O)NO (stereo not drawn) [Example 43, 2-Methyl-2-(2-methyl-furan-3-sulfonyl)-3-phenyl-propionic acid hydroxamide] | 66.1% | 34.7% | 46.6% |  |  |  | MMP 13 % inhibition at 1 micromolar (MMP 13 [1]): 55.5% |
| CCN(CC)CCOc1cccc(CC(C)(C(=O)NO)S(=O)(=O)c2ccc(OC)cc2)c1 (stereo not drawn) [Example 29, N-Hydroxy-2-(4-methoxy-benzenesulfonyl)-2-methyl-3-[3-(2-N,N-diethylamino-ethoxy)-phenyl]-propionamide] |  |  | 41% | 0.297 µM | 3.6 nM | 0.0043 µM |  |
| CC(Cc1ccc(OCCN2CCCCC2)cc1)(C(=O)NO)S(=O)(=O)c1ccc(Br)cc1 (stereo not drawn) [Example 50, 2-(4Bromo-benzenesulfonyl)-2-methyl-3-[4-(2-piperdine-1-yl-ethoxy)-phenyl]-propionic acid hydroxanide] |  |  |  | 0.0511 µM | 10.6 nM | 0.0584 µM |  |
| CCN(CC)CCOc1ccc(CC(C)(C(=O)NO)S(=O)(=O)c2ccc(OC)cc2)cc1 (stereo not drawn) [Example 21, N-Hydroxy-2-(4-methoxy-benzenesulfonyl)-2-methyl-3-[4-(2-N,N-diethylamino-ethoxy)-phenyl]-propionamide] |  |  |  | 0.318 µM | 15.3 nM | 0.0132 µM | inhibition at 1 µM (TACE): 39% |
| COc1ccc([S+]([O-])C(C(=O)NO)c2ccccc2)cc1 (stereo not drawn) [Example 8, N-Hydroxy-2-(4-methoxy-benzenesulfinyl)-2-phenyl-acetamide] |  |  |  |  | 308 nM | 0.346 µM | melting point: 135 °C |
| COc1ccc(S(=O)(=O)C2(C(=O)NO)CCN(Cc3ccc(-c4ccccc4)cc3)CC2)cc1 [Example 88, 1-Biphenyl-4-ylmethyl-4-(4-methoxy-benzenesulfonyl)-piperidine-4-carboxylic acid hydroxamide] |  |  |  | 1.33 µM |  | 0.0128 µM |  |
| COc1ccc(S(=O)(=O)C(C)(Cc2ccc(OCCN3CCCCC3)cc2)C(=O)NO)cc1 (stereo not drawn) [Example 17, N-Hydroxy-2-(4-methoxy-benzenesulfonyl)-2-methyl-3-[4-(2-piperidin-1-yl-ethoxy)-phenyl]-proponamide] |  |  | 41.00% | 0.239 µM |  | 0.0089 µM |  |
| CCCCCCC(C(=O)NO)[S+]([O-])c1ccc(NS(=O)(=O)c2c(C)nn(C)c2Cl)cc1 (stereo not drawn) [Example 235, 5-Chloro-1,3-dimethyl-1H-pyrazole-4-sulfonic acid 4-(1-hydroxycarbamoyl-heptylsulfinyl)-hydroxyamide] |  |  |  |  |  |  | TACE % inhibition at 1 mM (TACE): 48.3%; MMP 13 % inhibition at 36 nM (HTS) (MMP 13 [2]): 59% |
| Cc1occc1S(=O)(=O)C(C)(Cc1ccc(OCCN2CCCCC2)cc1)C(=O)NO (stereo not drawn) [Example 44, 2-Methyl-2-(2-methyl-furan-3-sulfonyl)3-[4-(2-piperidin-1-yl-ethoxy)phenyl]-propionic acid hydroxamide] | 47.1% | 36.9% | 14.9% |  |  |  | MMP 13 % inhibition at 1 micromolar (MMP 13 [1]): 39.5% |
| CCCC(Cc1ccc(OCCN2CCOCC2)cc1)(C(=O)NO)S(=O)(=O)c1ccc(OC)cc1 (stereo not drawn) [Example 35, 2-(4-Methoxy-benzenesulfonyl)-2-[4-(2-morpholin4yl-oxy)-benzyl]-pentanoic acid hydroxyamide] |  |  |  | 0.456 µM | 48.2 nM | 0.234 µM |  |
| O=C(CCC(Sc1ccccc1C(F)(F)F)C(=O)NO)NO (stereo not drawn) [Example 137, 4-Hydroxycarbamoyl-4-(2-trifluoromethyl-benzenesulfanyl)-butyric acid hydroxyamide] |  |  |  |  |  |  | TACE % inhibition at 1 mM (TACE): 13.35%; MMP 13 % inhibition at 0.2 μM (HTS) (MMP 13 [2]; 0.2 μM): 83% |
| CC(Cc1ccccc1)(C(=O)NO)S(=O)(=O)c1cccs1 (stereo not drawn) [Example 48, 2-Methyl-3-phenyl-2-(thiophene-2-sulfonyl)-propionic acid hydroxamide] | 99.1% | 79.1% | 51.1% |  |  |  |  |
| CCCCCCC(Sc1nc(-c2ccccc2)cs1)C(=O)NO (stereo not drawn) [Example 172, 2-(4-Phenyl-thiazole-2-sulfanyl)-octanoic acid hydroxyamide] |  |  |  |  |  |  | TACE % inhibition at 1 mM (TACE): 29.4%; MMP 13 % inhibition at 36 nM (HTS) (MMP 13 [2]): 34% |
| COc1ccc(S(=O)(=O)C2(C(=O)NO)CCN(Cc3ccc4ccccc4c3)CC2)cc1 [Example 87, 4-(4methoxy-benzene-sulfonyl)-1-napthalene-2-yl-methylpiperidine-4-carboxylic acid hydroxamide] |  |  |  | 0.368 µM |  | 0.005 µM | melting point: 168 to 170 °C |
